Test results: publication PMC9014845 (Clinical cancer research : an official journal of the …, 2019)
“Also recorded” adds a separate entry of the source.

System: patients with advanced solid tumors harboring FGFR1–3 gene alterations
Assay: Phase I dose-escalation: safety/tolerability
Type: in vivo, human
Details: for Any TEAE / Any TEAE leading to discontinuation / Any TEAE leading to dose reduction / Any TEAE leading to treatment interruption / Serious TEAE / TEAE: ALT increased / TEAE: AST increased / TEAE: Abdominal pain / TEAE: Alopecia / TEAE: Anemia / TEAE: Back pain / TEAE: Blurred vision / TEAE: Constipation / TEAE: Creatinine increased (in blood) / TEAE: Decreased appetite / TEAE: Diarrhea / TEAE: Dry eye / TEAE: Dry mouth / TEAE: Dry skin / TEAE: Dysgeusia / TEAE: Dyspnea / TEAE: Edema peripheral / TEAE: Fatigue / TEAE: Hyperphosphatemia / TEAE: Hypertension / TEAE: Hypokalemia / TEAE: Hypomagnesemia / TEAE: Mucosal inflammation / TEAE: Myalgia / TEAE: Nail changes / TEAE: Nausea / TEAE: Stomatitis / TEAE: Vomiting: all grades

Debio 1347
DLT observed (60 mg): grade-2 dry mouth and eyes
Any TEAE (60 mg (n=10)): 10 (100) Number (%) of patients
Any TEAE leading to discontinuation (60 mg (n=10)): 1 (10) Number (%) of patients
Any TEAE leading to dose reduction (60 mg (n=10)): 2 (20) Number (%) of patients
Any TEAE leading to treatment interruption (60 mg (n=10)): 6 (60) Number (%) of patients
Serious TEAE (60 mg (n=10)): 2 (20) Number (%) of patients
TEAE: ALT increased (60 mg (n=10)): 1 (10) Number (%) of patients
TEAE: AST increased (60 mg (n=10)): 2 (20) Number (%) of patients
TEAE: Abdominal pain (60 mg (n=10)): 3 (30) Number (%) of patients
TEAE: Alopecia (60 mg (n=10)): 1 (10) Number (%) of patients
TEAE: Anemia (60 mg (n=10)): 4 (40) Number (%) of patients
TEAE: Back pain (60 mg (n=10)): 0 Number (%) of patients
TEAE: Blurred vision (60 mg (n=10)): 1 (10) Number (%) of patients
TEAE: Constipation (60 mg (n=10)): 2 (20) Number (%) of patients
TEAE: Creatinine increased (in blood) (60 mg (n=10)): 2 (20) Number (%) of patients
TEAE: Decreased appetite (60 mg (n=10)): 3 (30) Number (%) of patients
TEAE: Diarrhea (60 mg (n=10)): 7 (70) Number (%) of patients
TEAE: Dry eye (60 mg (n=10)): 2 (20) Number (%) of patients
TEAE: Dry mouth (60 mg (n=10)): 4 (40) Number (%) of patients
TEAE: Dry skin (60 mg (n=10)): 0 Number (%) of patients
TEAE: Dysgeusia (60 mg (n=10)): 1 (10) Number (%) of patients
TEAE: Dyspnea (60 mg (n=10)): 3 (30) Number (%) of patients
TEAE: Edema peripheral (60 mg (n=10)): 1 (10) Number (%) of patients
TEAE: Fatigue (60 mg (n=10)): 5 (50) Number (%) of patients
TEAE: Hyperphosphatemia (60 mg (n=10)): 9 (90) Number (%) of patients
TEAE: Hypertension (60 mg (n=10)): 1 (10) Number (%) of patients
TEAE: Hypokalemia (60 mg (n=10)): 0 Number (%) of patients
TEAE: Hypomagnesemia (60 mg (n=10)): 2 (20) Number (%) of patients
TEAE: Mucosal inflammation (60 mg (n=10)): 1 (10) Number (%) of patients
TEAE: Myalgia (60 mg (n=10)): 1 (10) Number (%) of patients
TEAE: Nail changes (60 mg (n=10)): 2 (20) Number (%) of patients
TEAE: Nausea (60 mg (n=10)): 3 (30) Number (%) of patients
TEAE: Stomatitis (60 mg (n=10)): 1 (10) Number (%) of patients
TEAE: Vomiting (60 mg (n=10)): 2 (20) Number (%) of patients
DLT observed (80 mg): hyperamylasemia; also recorded: grade-3 asymptomatic hypercalcemia
Any TEAE (80 mg (n=10)): 10(100%) Number (%) of patients
Any TEAE leading to discontinuation (80 mg (n=10)): 3 (30) Number (%) of patients
Any TEAE leading to dose reduction (80 mg (n=10)): 2 (20) Number (%) of patients
Any TEAE leading to treatment interruption (80 mg (n=10)): 5 (50) Number (%) of patients
Serious TEAE (80 mg (n=10)): 3 (30) Number (%) of patients
TEAE: ALT increased (80 mg (n=10)): 1 (10) Number (%) of patients
TEAE: AST increased (80 mg (n=10)): 1 (10) Number (%) of patients
TEAE: Abdominal pain (80 mg (n=10)): 3 (30) Number (%) of patients
TEAE: Alopecia (80 mg (n=10)): 1 (10) Number (%) of patients
TEAE: Anemia (80 mg (n=10)): 2 (20) Number (%) of patients
TEAE: Back pain (80 mg (n=10)): 0 Number (%) of patients
TEAE: Blurred vision (80 mg (n=10)): 2 (20) Number (%) of patients
TEAE: Constipation (80 mg (n=10)): 3 (30) Number (%) of patients
TEAE: Creatinine increased (in blood) (80 mg (n=10)): 2 (20) Number (%) of patients
TEAE: Decreased appetite (80 mg (n=10)): 5 (50) Number (%) of patients
TEAE: Diarrhea (80 mg (n=10)): 5 (50) Number (%) of patients
TEAE: Dry eye (80 mg (n=10)): 0 Number (%) of patients
TEAE: Dry mouth (80 mg (n=10)): 5 (50) Number (%) of patients
TEAE: Dry skin (80 mg (n=10)): 2 (20) Number (%) of patients
TEAE: Dysgeusia (80 mg (n=10)): 2 (20) Number (%) of patients
TEAE: Dyspnea (80 mg (n=10)): 1 (10) Number (%) of patients
TEAE: Edema peripheral (80 mg (n=10)): 2 (20) Number (%) of patients
TEAE: Fatigue (80 mg (n=10)): 5 (50) Number (%) of patients
TEAE: Hyperphosphatemia (80 mg (n=10)): 9 (90) Number (%) of patients
TEAE: Hypertension (80 mg (n=10)): 0 Number (%) of patients
TEAE: Hypokalemia (80 mg (n=10)): 2 (20) Number (%) of patients
TEAE: Hypomagnesemia (80 mg (n=10)): 1 (10) Number (%) of patients
TEAE: Mucosal inflammation (80 mg (n=10)): 3 (30) Number (%) of patients
TEAE: Myalgia (80 mg (n=10)): 3 (30) Number (%) of patients
TEAE: Nail changes (80 mg (n=10)): 3 (30) Number (%) of patients
TEAE: Nausea (80 mg (n=10)): 3 (30) Number (%) of patients
TEAE: Stomatitis (80 mg (n=10)): 3 (30) Number (%) of patients
TEAE: Vomiting (80 mg (n=10)): 1 (10) Number (%) of patients
DLT observed (110 mg): stomatitis; also recorded: grade-3 bilirubin increase and hyper-phosphatemia
Any TEAE (110 mg (n=9)): 9 (100%) Number (%) of patients
Any TEAE leading to discontinuation (110 mg (n=9)): 1 (11) Number (%) of patients
Any TEAE leading to dose reduction (110 mg (n=9)): 7 (78) Number (%) of patients
Any TEAE leading to treatment interruption (110 mg (n=9)): 8 (89) Number (%) of patients
Serious TEAE (110 mg (n=9)): 4 (44) Number (%) of patients
TEAE: ALT increased (110 mg (n=9)): 1 (11) Number (%) of patients
TEAE: AST increased (110 mg (n=9)): 1 (11) Number (%) of patients
TEAE: Abdominal pain (110 mg (n=9)): 2 (22) Number (%) of patients
TEAE: Alopecia (110 mg (n=9)): 4 (44) Number (%) of patients
TEAE: Anemia (110 mg (n=9)): 3 (33) Number (%) of patients
TEAE: Back pain (110 mg (n=9)): 1 (11) Number (%) of patients
TEAE: Blurred vision (110 mg (n=9)): 2 (22) Number (%) of patients
TEAE: Constipation (110 mg (n=9)): 3 (33) Number (%) of patients
TEAE: Creatinine increased (in blood) (110 mg (n=9)): 0 Number (%) of patients
TEAE: Decreased appetite (110 mg (n=9)): 3 (33) Number (%) of patients
TEAE: Diarrhea (110 mg (n=9)): 3 (33) Number (%) of patients
TEAE: Dry eye (110 mg (n=9)): 4 (44) Number (%) of patients
TEAE: Dry mouth (110 mg (n=9)): 4 (44) Number (%) of patients
TEAE: Dry skin (110 mg (n=9)): 5 (55) Number (%) of patients
TEAE: Dysgeusia (110 mg (n=9)): 4 (44) Number (%) of patients
TEAE: Dyspnea (110 mg (n=9)): 3 (33) Number (%) of patients
TEAE: Edema peripheral (110 mg (n=9)): 2 (22) Number (%) of patients
TEAE: Fatigue (110 mg (n=9)): 5 (55) Number (%) of patients
TEAE: Hyperphosphatemia (110 mg (n=9)): 9 (100) Number (%) of patients
TEAE: Hypertension (110 mg (n=9)): 0 Number (%) of patients
TEAE: Hypokalemia (110 mg (n=9)): 1 (11) Number (%) of patients
TEAE: Hypomagnesemia (110 mg (n=9)): 0 Number (%) of patients
TEAE: Mucosal inflammation (110 mg (n=9)): 2 (22) Number (%) of patients
TEAE: Myalgia (110 mg (n=9)): 3 (33) Number (%) of patients
TEAE: Nausea (110 mg (n=9)): 6 (67) Number (%) of patients
TEAE: Stomatitis (110 mg (n=9)): 7 (78) Number (%) of patients
TEAE: Vomiting (110 mg (n=9)): 3 (33) Number (%) of patients
Any TEAE (150 mg (n=3)): 3 (100%) Number (%) of patients
Any TEAE leading to discontinuation (150 mg (n=3)): 0 (0) Number (%) of patients
Any TEAE leading to treatment interruption (150 mg (n=3)): 3 (100) Number (%) of patients
Serious TEAE (150 mg (n=3)): 2 (67) Number (%) of patients
TEAE: ALT increased (150 mg (n=3)): 0 Number (%) of patients
TEAE: AST increased (150 mg (n=3)): 0 Number (%) of patients
TEAE: Abdominal pain (150 mg (n=3)): 1 (33) Number (%) of patients
TEAE: Alopecia (150 mg (n=3)): 2 (67) Number (%) of patients
TEAE: Anemia (150 mg (n=3)): 0 Number (%) of patients
